Experimental data published in the NIST ThermoML archive (doi:10.1016/j.jct.2016.10.023).

Assay: xn = mol fraction of the nth substance listed
Conditions: Constant-volume piezometry

CCCCC [pentane] + CCCO
Conditions	mass density [kg/m3]
513.15 K, 5373 kPa, Fluid (supercritical or subcritical phases), x1 = 0.5	200.49
513.15 K, 5432 kPa, Fluid (supercritical or subcritical phases), x1 = 0.5	210.33
513.15 K, 5454 kPa, Fluid (supercritical or subcritical phases), x1 = 0.9	202.47
513.15 K, 5473 kPa, Fluid (supercritical or subcritical phases), x1 = 0.8	193.25
513.15 K, 5506 kPa, Fluid (supercritical or subcritical phases), x1 = 0.5	224.16
513.15 K, 5598 kPa, Fluid (supercritical or subcritical phases), x1 = 0.5	241.62
513.15 K, 5618 kPa, Fluid (supercritical or subcritical phases), x1 = 0.5	250.82
513.15 K, 5669 kPa, Fluid (supercritical or subcritical phases), x1 = 0.9	220.79
513.15 K, 5677 kPa, Fluid (supercritical or subcritical phases), x1 = 0.5	259.87
513.15 K, 5710 kPa, Fluid (supercritical or subcritical phases), x1 = 0.8	213.96
513.15 K, 5746 kPa, Fluid (supercritical or subcritical phases), x1 = 0.5	270.69
513.15 K, 5776 kPa, Fluid (supercritical or subcritical phases), x1 = 0.8	219.73
513.15 K, 5792 kPa, Liquid, x1 = 0.2	418.94
513.15 K, 5837 kPa, Fluid (supercritical or subcritical phases), x1 = 0.9	233.18
513.15 K, 5858 kPa, Fluid (supercritical or subcritical phases), x1 = 0.5	282.52
513.15 K, 5880 kPa, Fluid (supercritical or subcritical phases), x1 = 0.9	236.64
513.15 K, 5929 kPa, Fluid (supercritical or subcritical phases), x1 = 0.9	241.05
513.15 K, 5974 kPa, Fluid (supercritical or subcritical phases), x1 = 0.9	244.36
513.15 K, 5983 kPa, Fluid (supercritical or subcritical phases), x1 = 0.8	234.82
513.15 K, 6090 kPa, Fluid (supercritical or subcritical phases), x1 = 0.5	298.82
513.15 K, 6119 kPa, Fluid (supercritical or subcritical phases), x1 = 0.8	245.46
513.15 K, 6286 kPa, Fluid (supercritical or subcritical phases), x1 = 0.8	258.7
513.15 K, 6470 kPa, Fluid (supercritical or subcritical phases), x1 = 0.5	320.16
513.15 K, 6531 kPa, Fluid (supercritical or subcritical phases), x1 = 0.8	272.67
513.15 K, 6531 kPa, Fluid (supercritical or subcritical phases), x1 = 0.9	282.15
513.15 K, 6559 kPa, Fluid (supercritical or subcritical phases), x1 = 0.5	325.44
513.15 K, 6787 kPa, Fluid (supercritical or subcritical phases), x1 = 0.8	288.53
513.15 K, 6884 kPa, Fluid (supercritical or subcritical phases), x1 = 0.9	301.84
513.15 K, 6962 kPa, Fluid (supercritical or subcritical phases), x1 = 0.5	344.73
513.15 K, 7033 kPa, Fluid (supercritical or subcritical phases), x1 = 0.8	299.35
513.15 K, 7191 kPa, Fluid (supercritical or subcritical phases), x1 = 0.9	312.49
513.15 K, 7508 kPa, Fluid (supercritical or subcritical phases), x1 = 0.8	315.53
513.15 K, 7785 kPa, Fluid (supercritical or subcritical phases), x1 = 0.5	373.08
513.15 K, 7943 kPa, Fluid (supercritical or subcritical phases), x1 = 0.9	334.21
513.15 K, 8099 kPa, Fluid (supercritical or subcritical phases), x1 = 0.8	334.03
513.15 K, 8570 kPa, Fluid (supercritical or subcritical phases), x1 = 0.8	345.56
513.15 K, 8766 kPa, Liquid, x1 = 0.2	470.65
513.15 K, 8986 kPa, Fluid (supercritical or subcritical phases), x1 = 0.5	398.35
513.15 K, 9031 kPa, Fluid (supercritical or subcritical phases), x1 = 0.9	354.32
513.15 K, 9551 kPa, Fluid (supercritical or subcritical phases), x1 = 0.8	362.13
513.15 K, 10333 kPa, Fluid (supercritical or subcritical phases), x1 = 0.5	417.46
513.15 K, 12509 kPa, Fluid (supercritical or subcritical phases), x1 = 0.5	441.21
513.15 K, 13550 kPa, Fluid (supercritical or subcritical phases), x1 = 0.2	509.9
513.15 K, 13550 kPa, Liquid, x1 = 0.2	509.9
513.15 K, 13634 kPa, Fluid (supercritical or subcritical phases), x1 = 0.5	451.54
513.15 K, 13786 kPa, Fluid (supercritical or subcritical phases), x1 = 0.9	407.53
513.15 K, 14551 kPa, Fluid (supercritical or subcritical phases), x1 = 0.8	418.46
513.15 K, 16655 kPa, Fluid (supercritical or subcritical phases), x1 = 0.5	468.45
513.15 K, 22117 kPa, Liquid, x1 = 0.2	547.38
513.15 K, 24001 kPa, Fluid (supercritical or subcritical phases), x1 = 0.8	467
513.15 K, 30101 kPa, Fluid (supercritical or subcritical phases), x1 = 0.5	519.68
513.15 K, 33469 kPa, Fluid (supercritical or subcritical phases), x1 = 0.8	496.43
513.15 K, 35193 kPa, Liquid, x1 = 0.2	581.71
513.15 K, 42801 kPa, Liquid, x1 = 0.2	595.3
514.15 K, 4473 kPa, Gas, x1 = 0.2	150.41
514.15 K, 4778 kPa, Liquid, x1 = 0.2	341.42
514.15 K, 4795 kPa, Liquid, x1 = 0.2	350.74
515.15 K, 4522 kPa, Gas, x1 = 0.2	150.4
515.15 K, 4645 kPa, Fluid (supercritical or subcritical phases), x1 = 0.2	175.68
515.15 K, 4818 kPa, Fluid (supercritical or subcritical phases), x1 = 0.2	318.9
516.15 K, 4838 kPa, Fluid (supercritical or subcritical phases), x1 = 0.2	272.45
516.15 K, 4852 kPa, Fluid (supercritical or subcritical phases), x1 = 0.2	290.64
516.15 K, 4872 kPa, Fluid (supercritical or subcritical phases), x1 = 0.2	306.93
516.15 K, 4877 kPa, Fluid (supercritical or subcritical phases), x1 = 0.2	311.17
516.15 K, 4909 kPa, Fluid (supercritical or subcritical phases), x1 = 0.2	318.89
517.15 K, 4912 kPa, Fluid (supercritical or subcritical phases), x1 = 0.2	272.44
517.15 K, 4958 kPa, Fluid (supercritical or subcritical phases), x1 = 0.2	306.92

Liquid, x1 = 0.2
Conditions	mass density [kg/m3]
513.45 K	344.22
513.65 K	341.43
514.95 K	318.91
515.15 K	311.18
515.55 K	306.94
515.95 K	290.64
516.15 K	272.45
